Converted amounts (≈) assume the structure as drawn.
Columns and labels:
[1] = system: P. aeruginosa ESBL 2; experiment: MIC, microbroth dilution susceptibility assay (Table 2b); type: cell-based; conditions: larger panel
Procedure: (§1) Cystobactamid derivatives synthesized were tested against relevant Gram negative and positive bacteria of clinical interest. Experimental procedures used for the biological characterization of the compounds are the same as previously described in WO 2016/082934.
(§2) Bacterial strains used in susceptibility assays (minimum inhibitory concentration, MIC) were either part of our internal strain collection or purchased from the German Collection of Microorganisms and Cell Cultures (Deutsche Sammlung von Mikroorganismen und Zellkulturen, DSMZ) and the American Type Culture Collection (ATCC). The susceptible E. coli strain (WT) and fluoroquinolone-resistant mutants E. coli WT-3 and WT-III were kindly provided by Prof Dr. P. Heisig, Pharmaceutical Biology and Microbiology, University of Hamburg, Germany. The efflux-deficient strain P. aeruginosa ΔmexAB was kindly provided by Prof Dr. S. Häußler, Institute for Molecular Bacteriology, TWINCORE, Hannover, Germany. All compounds were prepared as DMSO stocks and MIC values were determined in standard microbroth dilution assays in 96-well MTPs as described in Baumann et al., Angew Chem Int Ed Engl. 2014; 53(52):14605-9. In brief, overnight cultures of bacteria were diluted in either tryptic soy broth (TSB: 1.7% peptone casein, 0.3% peptone soymeal, 0.25% glucose, 0.5% NaCl, 0.25% K2HPO4; pH 7.3; S. pneumoniae and E. faecalis) or cation-adjusted Müller-Hinton Broth (BBL™, BD; all other bacteria) and adjusted to 10^4-10^6 cfu/mL. Bacteria were grown in the presence of the derivatives in serial dilution for approx. 16 h at 30-37° C. MIC values were determined and were defined as the antibiotic concentration at which no visual growth of bacteria was observed.

[2] = system: E. cloacae; experiment: as above; type: cell-based; conditions: larger panel
Procedure: as §1, §2

[3] = system: K. pneumoniae; experiment: as above; type: cell-based; conditions: larger panel
Procedure: as §1, §2

[4] = system: P. vulgaris; experiment: as above; type: cell-based; conditions: larger panel
Procedure: as §1, §2

[5] = system: E. aerogenes; experiment: as above; type: cell-based; conditions: larger panel
Procedure: as §1, §2

[6] = system: S. epidermidis; experiment: as above; type: cell-based; conditions: larger panel
Procedure: as §1, §2

[7] = system: S. marcescens; experiment: as above; type: cell-based; conditions: larger panel
Procedure: as §1, §2

[8] = system: P. mirabilis; experiment: as above; type: cell-based; conditions: larger panel
Procedure: as §1, §2

[9] = system: P. aeruginosa ESBL 1; experiment: as above; type: cell-based; conditions: larger panel
Procedure: as §1, §2

[10] = system: E. faecalis; experiment: as above; type: cell-based; conditions: larger panel
Procedure: as §1, §2

[11] = system: A. baumannii; experiment: as above; type: cell-based; conditions: larger panel
Procedure: as §1, §2

[12] = system: C. freundii; experiment: as above; type: cell-based; conditions: larger panel
Procedure: as §1, §2

[13] = system: E. coli WT; experiment: MIC, microbroth dilution susceptibility assay; type: cell-based
In short: (§3)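 Overnight cultures were diluted in cation-adjusted Müller-Hinton broth to 10^4-10^6 cfu/mL and grown with serially diluted compound (from DMSO stocks) for approx. 16 h at 30-37° C. MIC is the lowest concentration with no visible bacterial growth.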

[14] = system: E. coli WT-3 [gyrA(S83L,D87G)]; experiment: microbe, parasite or virus in culture; type: cell-based
In short: as §3

[15] = system: E. coli WT-III [marRΔ74bp]; type: cell-based; conditions: fluoroquinolone-resistant mutant; Table 2a
Procedure: as §1, §2

[16] = system: E. coli WT DSM-1116; experiment: MIC, microbroth dilution susceptibility assay; type: cell-based; conditions: Escherichia coli, DSM1116; small panel, Tables 1a/1b; no visual growth after approx. 16 h; read-out: MIC E. coli WT DSM-1116
In short: as §3

[17] = system: E. cloacae DSM-30054; experiment: MIC, microbroth dilution susceptibility assay; type: cell-based; conditions: Enterobacter cloacae, DSM30054; large panel, Table 2a
In short: as §3

[18] = system: P. vulgaris DSM-2140; experiment: MIC, microbroth dilution susceptibility assay; type: cell-based; conditions: Proteus vulgaris, DSM2140; large panel, Table 2a
In short: as §3

[19] = system: P. mirabilis DSM-2140; experiment: MIC, microbroth dilution susceptibility assay; type: cell-based; conditions: Proteus mirabilis, DSM2140; large panel, Table 2a
In short: as §3

[20] = system: K. pneumoniae DSM-30104; experiment: MIC, microbroth dilution susceptibility assay; type: cell-based; conditions: Klebsiella pneumoniae, DSM30104; large panel, Table 2a
In short: as §3

[21] = system: S. epidermidis DSM-28765; experiment: MIC, microbroth dilution susceptibility assay; type: cell-based; conditions: Staphylococcus epidermidis, DSM28765; large panel, Table 2a
In short: as §3

[22] = system: C. freundii DSM-30039; experiment: MIC, microbroth dilution susceptibility assay; type: cell-based; conditions: Citrobacter freundii, DSM30039; large panel, Table 2a
In short: as §3

[23] = system: E. aerogenes DSM-30053; experiment: MIC, microbroth dilution susceptibility assay; type: cell-based; conditions: Klebsiella aerogenes, DSM30053; large panel, Table 2a
In short: as §3

[24] = system: S. aureus Newman; experiment: MIC, microbroth dilution susceptibility assay; type: cell-based; conditions: Staphylococcus aureus, NEWMAN; small panel, Tables 1a/1b; read-out: MIC S. aureus Newman
In short: as §3

[25] = system: S. aureus ATCC-29213; experiment: MIC, microbroth dilution susceptibility assay; type: cell-based; conditions: Staphylococcus aureus, ATCC29213; large panel, Table 2a
In short: as §3

[26] = system: E. faecalis ATCC-29212; experiment: MIC, microbroth dilution susceptibility assay; type: cell-based; conditions: Enterococcus faecalis, ATCC29212; large panel, Table 2a; TSB
In short: as §3

[27] = system: P. aeruginosa WT PA14; experiment: MIC, microbroth dilution susceptibility assay; type: cell-based; conditions: Pseudomonas aeruginosa, PA14, small panel, Tables 1a/1b; read-out: MIC P. aeruginosa WT PA14
In short: as §3

[28] = system: S. marcescens DSM-30121; experiment: MIC, microbroth dilution susceptibility assay; type: cell-based; conditions: Serratia marcescens, DSM30121; large panel, Table 2a
In short: as §3

[29] = system: S. pneumoniae DSM-20566; experiment: MIC, microbroth dilution susceptibility assay; type: cell-based; conditions: Streptococcus pneumoniae, DSM20566; large panel, Table 2a; TSB
In short: as §3

[30] = system: A. baumannii DSM-30008; experiment: MIC, microbroth dilution susceptibility assay; type: cell-based; conditions: Acinetobacter baumannii, DSM30008; large panel, Table 2a
In short: as §3

[31] = system: P. aeruginosa DSM-46316; experiment: MIC, microbroth dilution susceptibility assay; type: cell-based; conditions: Pseudomonas aeruginosa, DSM46316; large panel, Table 2a
In short: as §3

[32] = system: P. aeruginosa DSM-24600; experiment: MIC, microbroth dilution susceptibility assay; type: cell-based; conditions: Pseudomonas aeruginosa, DSM24600; large panel, Table 2a
In short: as §3

[33] = system: E. coli ΔtolC; experiment: microbe, parasite or virus in culture; type: cell-based; conditions: Escherichia coli, 16 h, read-out: MIC E. coli ΔtolC, small panel, Tables 1a/1b; no visual growth after approx. 16 h
In short: as §3

[34] = system: P. aeruginosa ΔmexAB; experiment: microbe, parasite or virus in culture; type: cell-based; conditions: Pseudomonas aeruginosa, 16 h, read-out: MIC P. aeruginosa ΔmexAB, efflux-deficient strain; small panel, Tables 1a/1b
In short: as §3

[35] = target: T1, E. coli gyrase (Escherichia coli, UniProt P0AES4+P0AES6); experiment: E. coli gyrase supercoiling (sc) assay; type: biochemical; conditions: supercoiling assay kit, agarose gel quantification; read-out: Ec gyrase sc IC50
T1 construct: purchased Inspiralis
Procedure: The target activity on E. coli gyrase was assessed as described in Baumann et al., Angew Chem Int Ed Engl. 2014; 53(52):14605-9 using a commercial supercoiling (sc) assay kit from Inspiralis according to the manufacturer's instructions. The samples were separated on 0.8% (w/v) agarose gels and relaxed and supercoiled plasmid was visualized by ethidium bromide staining. Half-inhibitory concentrations (IC50) were calculated after image analysis and quantification (ImageJ) based on sigmoidal curve fitting (OriginPro).

## COc1c(NC(=O)c2ccc(NC(=O)c3ccc(NC(=O)[C@H](CC#N)NC(=O)c4ccc(NC(=O)/C(C)=C/c5ccc(O)cc5)cc4)cc3)c(OC)c2O)ccc(C(=O)O)c1O [Alb, Albicidin, reference compound]
[1]
  MIC P. aeruginosa ESBL 2: 16 µg/mL (≈ 19 µM)
[2]
  MIC E. cloacae: >64 µg/mL
[3]
  MIC K. pneumoniae: >64 µg/mL
[4]
  MIC P. vulgaris: <0.03 µg/mL
[5]
  MIC E. aerogenes: >64 µg/mL
[6]
  MIC S. epidermidis: 0.5 µg/mL (≈ 0.593 µM)
[7]
  MIC S. marcescens: >64 µg/mL
[8]
  MIC P. mirabilis: >64 µg/mL
[9]
  MIC P. aeruginosa ESBL 1: 16 µg/mL (≈ 19 µM)
[10]
  MIC E. faecalis: 4 µg/mL (≈ 4.75 µM)
[11]
  MIC A. baumannii: >64 µg/mL
[12]
  MIC C. freundii: <0.03 µg/mL
[13]; larger panel, Table 2b
  MIC E. coli WT: 0.06 µg/mL (≈ 0.0712 µM)
[14]; larger panel, Table 2b
  MIC E. coli WT-3 [gyrA(S83L, D87G)]: 0.06 µg/mL (≈ 0.0712 µM)

## CC(C)Oc1c(NC(=O)c2ccc(NC(=O)[C@H](CC(N)=O)NC(=O)c3ccc(NC(=O)c4ccc([N+](=O)[O-])cc4)cc3)cc2)ccc(C(=O)Nc2ccc(C(=O)O)cc2)c1O [Compound 28, (S)-4-(4-(4-(4-amino-2-(4-(4-nitrobenzamido)benzamido)-4-oxobutanamido)benzamido)-2-hydroxy-3-isopropoxybenzamido)benzoic acid]
[15]
  MIC E. coli WT-III [marRΔ74bp]: 0.06 µg/mL (≈ 0.0721 µM)
[16]
  MIC: 0.13 µg/mL (≈ 0.156 µM)
[17]
  MIC: 0.25 µg/mL (≈ 0.301 µM)
[18]
  MIC: 0.13 µg/mL (≈ 0.156 µM)
[13]; Escherichia coli, large panel, Table 2a
  MIC: 0.06 µg/mL (≈ 0.0721 µM)
[19]
  MIC: > 64 µg/mL
[20]
  MIC: > 64 µg/mL
[21]
  MIC: 1 µg/mL (≈ 1.2 µM)
[22]
  MIC: 0.06 µg/mL (≈ 0.0721 µM)
[23]
  MIC: > 64 µg/mL
[24]
  MIC: 0.5 µg/mL (≈ 0.601 µM)
[25]
  MIC: 0.5 µg/mL (≈ 0.601 µM)
[26]
  MIC: 2 µg/mL (≈ 2.4 µM)
[27]
  MIC: > 64 µg/mL
[28]
  MIC: > 64 µg/mL
[29]
  MIC: 0.25 µg/mL (≈ 0.301 µM)
[30]
  MIC: 0.25 µg/mL (≈ 0.301 µM)
[31]
  MIC: > 64 µg/mL
[32]
  MIC: > 64 µg/mL
[14]; Escherichia coli, read-out: MIC E. coli WT-3 [gyrA(S83L,D87G)]
  MIC: 0.25 µg/mL (≈ 0.301 µM)
[33]
  MIC: 0.06 µg/mL (≈ 0.0721 µM)
[34]
  MIC: 1 µg/mL (≈ 1.2 µM)
[35]
  IC50: 110 nM
